Tested on: Mino cells
Test: Pull-down proteomics in Mino cells
Format: cell-based, human
Method: The cells were lysed and “clicked” with biotin-azide, and the samples were incubated at room temperature for 1 h. The samples were then precipitated with methanol–chloroform (1 mL of methanol, 250 μL of chloroform, 750 μL of water), washed with 1 mL of methanol, and air-dried. The samples were solubilized, bound to streptavidin agarose beads in PBS for 3 h at 25 °C. The beads were washed, centrifuged, resuspended in Tris 50 mM pH 8, and transferred to a clean Eppendorf tube. After this, the bound proteins were eluted by boiling with 5% SDS then reduced with DTT, alkylated with iodoacetamide, and digested with trypsin. The samples were run on LC/MS/MS. The detailed procedure is available in the Supplementary Methods Section. […]
Pull-down proteomics experiments
1b or DMSO. The cells were spun down, washed with cold PBS and frozen. Then, each sample was lysed in 200 ul of RIPA for 15 minutes on ice and centrifuged at 20000 g at 4 °C. The protein in the supernatant was quantified using BCA. For each sample, […] of 1.65 mg/ml was prepared.
At this point, 5 ul of 5 mM biotin azide and 9 ul of 100 mM CuSO4:THPTA complex were added.
The click reaction was initiated by the addition of 7.5 ul of 150 mM sodium ascorbate, and the samples are incubated at room temperature for 1 hour. The samples were then precipitated with methanol: chloroform (1 ml methanol, 250 l chloroform, 750 l water), washed with 1 ml of methanol, and air dried. The dry pellet was resuspended in 1.2% SDS in PBS (250 l), sonicated as described before, and heated to 90 °C for 5 minutes. The samples were then diluted to 1.5 ml with PBS, and 50 ul of streptavidin agarose beads, prewashed with 0.2% SDS in PBS, were added, followed by 3 hour incubation at room temperature. Following the incubation, the beads were centrifuged 2 minutes 2000 g, and washed 4 times, with the following buffers (4 ml in each wash):
2% SDS; 0.1% sodium deoxycholate, 1% Triton X-100, 0.5 M NaCl, 1 mM EDTA, 50 mM HEPES pH = 7.5; 0.25 M NaCl, 0.5% IGEPAL, 0.5% sodium deoxycholate, 1 mM EDTA, 10 mM Tris pH = 8.1; 50 mM Tris pH = 7.4, 50 mM NaCl. The beads were then resuspended in Tris 50 mM pH = 8 and transferred to a clean Eppendorf tube.
At this point, the buffer was removed to leave a volume of 100 ul, and 100 ul of Tris 50 mM pH 8 + 10% SDS was added, and the samples were heated to 96 °C for 5 minutes. The samples were then centrifuged and the denatured, eluted proteins were transferred to new tubes. Then, 7.5 ul of 0.1 M DTT was added, and samples were incubated at 65 °C for 45 minutes. After the samples had cooled, 7.5 ul of iodoacetamide (0.2 M) were added, and the samples were incubated in the dark for 40 minutes at room temperature. At this point 1/10 volume of 12% phosphoric acid was added, and the samples were diluted 6-fold with 90% methanol + 50 mM ammonium bicarbonate. The samples were then loaded on s-trap micro columns (Protify) and the columns […]
were washed 3 times with 150 ul of 90% methanol + 50 mM ammonium bicarbonate. Then, 20 ul of 0.05 g/l of trypsin in 50 mM ammonium bicarbonate were added to the columns, and the samples were incubated at 47 °C for 90 minutes. Then 40 ul of 50 mM ammonium bicarbonate was added, followed by centrifugation and addition of 1 ul of 0.5 g/l trypsin to the eluate, which was incubated at 37C overnight. The column itself was then eluted using 40 ul of 0.2% formic acid and 40 ul 0.2% formic acid in 50% acetonitrile into a separate tube, which was kept at 4 °C. The two eluates were then combined and evaporated before running on LC/MS/MS.
Running samples on LC/MS/MS:
ULC/MS grade solvents were used for all chromatographic steps. Each sample was loaded using split-less nano-Ultra Performance Liquid Chromatography (10 kpsi nanoAcquity; Waters, Milford, MA, USA). The mobile phase was: A) H2O + 0.1% formic acid and B) acetonitrile + 0.1% formic acid. Desalting of the samples was performed online using a reversed-phase Symmetry C18 […]

## C#CCCNC(=O)C(=C)CN1CCC[C@@H](n2nc(-c3ccc(Oc4ccccc4)cc3)c3c(N)ncnc32)C1 [1b]
ACACA_HUMAN group, 1b relative to pretreatment by ibrutinib
  Log2(fold enrichment): 0.4315
ACACA_HUMAN group, 1b relative to treatment with DMSO
  Log2(fold enrichment): -0.2749
ACTG_HUMAN group, 1b relative to pretreatment by ibrutinib
  Log2(fold enrichment): 0.2725
ACTG_HUMAN group, 1b relative to treatment with DMSO
  Log2(fold enrichment): 0.2915
ALDOA_HUMAN, 1b relative to pretreatment by ibrutinib
  Log2(fold enrichment): 0.4926
ALDOA_HUMAN, 1b relative to treatment with DMSO
  Log2(fold enrichment): 0.06327
ANXA2_HUMAN group, 1b relative to pretreatment by ibrutinib
  Log2(fold enrichment): -0.9011
ANXA2_HUMAN group, 1b relative to treatment with DMSO
  Log2(fold enrichment): 0.8548
B3GT4_HUMAN, 1b relative to pretreatment by ibrutinib
  Log2(fold enrichment): 0.1405
B3GT4_HUMAN, 1b relative to treatment with DMSO
  Log2(fold enrichment): 2.2518
CAD15_HUMAN, 1b relative to pretreatment by ibrutinib
  Log2(fold enrichment): -2.753
CAD15_HUMAN, 1b relative to treatment with DMSO
  Log2(fold enrichment): -0.7397
CRERF_HUMAN, 1b relative to pretreatment by ibrutinib
  Log2(fold enrichment): -0.1083
CRERF_HUMAN, 1b relative to treatment with DMSO
  Log2(fold enrichment): -0.06839
CX062_HUMAN, 1b relative to pretreatment by ibrutinib
  Log2(fold enrichment): 3.426
CX062_HUMAN, 1b relative to treatment with DMSO
  Log2(fold enrichment): 2.336
CYB5B_HUMAN, 1b relative to pretreatment by ibrutinib
  Log2(fold enrichment): 4.3203
CYB5B_HUMAN, 1b relative to treatment with DMSO
  Log2(fold enrichment): 3.916
CYFP1_HUMAN, 1b relative to pretreatment by ibrutinib
  Log2(fold enrichment): 5.178
CYFP1_HUMAN, 1b relative to treatment with DMSO
  Log2(fold enrichment): 4.841
DCD_HUMAN, 1b relative to pretreatment by ibrutinib
  Log2(fold enrichment): 0.833
DCD_HUMAN, 1b relative to treatment with DMSO
  Log2(fold enrichment): 3.261
DESP_HUMAN, 1b relative to pretreatment by ibrutinib
  Log2(fold enrichment): -0.03598
DESP_HUMAN, 1b relative to treatment with DMSO
  Log2(fold enrichment): 1.065
DSC1_HUMAN, 1b relative to pretreatment by ibrutinib
  Log2(fold enrichment): -0.2037
DSC1_HUMAN, 1b relative to treatment with DMSO
  Log2(fold enrichment): 0.5233
DSG1_HUMAN, 1b relative to pretreatment by ibrutinib
  Log2(fold enrichment): -0.7862
DSG1_HUMAN, 1b relative to treatment with DMSO
  Log2(fold enrichment): 1.658
EF1A3_HUMAN group, 1b relative to pretreatment by ibrutinib
  Log2(fold enrichment): 0.1605
EF1A3_HUMAN group, 1b relative to treatment with DMSO
  Log2(fold enrichment): 0.3209
ELAF_HUMAN, 1b relative to pretreatment by ibrutinib
  Log2(fold enrichment): -0.07576
ELAF_HUMAN, 1b relative to treatment with DMSO
  Log2(fold enrichment): 3.288
ENOA_HUMAN, 1b relative to pretreatment by ibrutinib
  Log2(fold enrichment): 0.1924
ENOA_HUMAN, 1b relative to treatment with DMSO
  Log2(fold enrichment): 0.2037
EP400_HUMAN, 1b relative to pretreatment by ibrutinib
  Log2(fold enrichment): 1.834
EP400_HUMAN, 1b relative to treatment with DMSO
  Log2(fold enrichment): -0.06967
FABP5_HUMAN, 1b relative to pretreatment by ibrutinib
  Log2(fold enrichment): -0.02939
FABP5_HUMAN, 1b relative to treatment with DMSO
  Log2(fold enrichment): 1.253
G3P_HUMAN, 1b relative to pretreatment by ibrutinib
  Log2(fold enrichment): 0.2104
G3P_HUMAN, 1b relative to treatment with DMSO
  Log2(fold enrichment): 0.2112
GRAH_HUMAN, 1b relative to pretreatment by ibrutinib
  Log2(fold enrichment): -0.3838
GRAH_HUMAN, 1b relative to treatment with DMSO
  Log2(fold enrichment): 1.151
GSTP1_HUMAN, 1b relative to pretreatment by ibrutinib
  Log2(fold enrichment): 0.8097
GSTP1_HUMAN, 1b relative to treatment with DMSO
  Log2(fold enrichment): 1.004
HS90B_HUMAN group, 1b relative to pretreatment by ibrutinib
  Log2(fold enrichment): 0.4589
HS90B_HUMAN group, 1b relative to treatment with DMSO
  Log2(fold enrichment): 0.7364
HSP7C_HUMAN, 1b relative to pretreatment by ibrutinib
  Log2(fold enrichment): 0.6921
HSP7C_HUMAN, 1b relative to treatment with DMSO
  Log2(fold enrichment): 0.6391
K2C6B_HUMAN, 1b relative to pretreatment by ibrutinib
  Log2(fold enrichment): -0.8867
K2C6B_HUMAN, 1b relative to treatment with DMSO
  Log2(fold enrichment): 0.6152
KPYM_HUMAN, 1b relative to pretreatment by ibrutinib
  Log2(fold enrichment): 0.1731
KPYM_HUMAN, 1b relative to treatment with DMSO
  Log2(fold enrichment): 1.135
LDHA_HUMAN, 1b relative to pretreatment by ibrutinib
  Log2(fold enrichment): 0.2369
LDHA_HUMAN, 1b relative to treatment with DMSO
  Log2(fold enrichment): -0.2458
LEG9C_HUMAN group, 1b relative to pretreatment by ibrutinib
  Log2(fold enrichment): 1.455
LEG9C_HUMAN group, 1b relative to treatment with DMSO
  Log2(fold enrichment): -0.9819
MCCA_HUMAN, 1b relative to pretreatment by ibrutinib
  Log2(fold enrichment): 0.4599
MCCA_HUMAN, 1b relative to treatment with DMSO
  Log2(fold enrichment): -0.3745
MMRN2_HUMAN, 1b relative to pretreatment by ibrutinib
  Log2(fold enrichment): -0.0371
MMRN2_HUMAN, 1b relative to treatment with DMSO
  Log2(fold enrichment): 0.08276
Mino cells, 100 nM 1b
  off-targets found in pull-down proteomics: BLK, MCAT, and ADK
NEUM_HUMAN, 1b relative to pretreatment by ibrutinib
  Log2(fold enrichment): 2
NEUM_HUMAN, 1b relative to treatment with DMSO
  Log2(fold enrichment): 0.3281
NPM_HUMAN, 1b relative to pretreatment by ibrutinib
  Log2(fold enrichment): 1.109
NPM_HUMAN, 1b relative to treatment with DMSO
  Log2(fold enrichment): 0.4515
PIP_HUMAN, 1b relative to pretreatment by ibrutinib
  Log2(fold enrichment): 0.6558
PIP_HUMAN, 1b relative to treatment with DMSO
  Log2(fold enrichment): -0.01924
PLAK_HUMAN, 1b relative to pretreatment by ibrutinib
  Log2(fold enrichment): 0.152
PLAK_HUMAN, 1b relative to treatment with DMSO
  Log2(fold enrichment): 1.616
PRDX2_HUMAN group, 1b relative to pretreatment by ibrutinib
  Log2(fold enrichment): -0.09254
PRDX2_HUMAN group, 1b relative to treatment with DMSO
  Log2(fold enrichment): -0.2676
REL_HUMAN, 1b relative to pretreatment by ibrutinib
  Log2(fold enrichment): 1.348
REL_HUMAN, 1b relative to treatment with DMSO
  Log2(fold enrichment): -0.2147
RL13_HUMAN, 1b relative to pretreatment by ibrutinib
  Log2(fold enrichment): 0.7491
RL13_HUMAN, 1b relative to treatment with DMSO
  Log2(fold enrichment): 0.2396
RL15_HUMAN, 1b relative to pretreatment by ibrutinib
  Log2(fold enrichment): 0.2388
RL15_HUMAN, 1b relative to treatment with DMSO
  Log2(fold enrichment): 0.9031
RL18_HUMAN, 1b relative to pretreatment by ibrutinib
  Log2(fold enrichment): 0.6086
RL18_HUMAN, 1b relative to treatment with DMSO
  Log2(fold enrichment): -0.373
RL40_HUMAN group, 1b relative to pretreatment by ibrutinib
  Log2(fold enrichment): -1.022
RL40_HUMAN group, 1b relative to treatment with DMSO
  Log2(fold enrichment): 0.218
S10A8_HUMAN, 1b relative to pretreatment by ibrutinib
  Log2(fold enrichment): 0.2414
S10A8_HUMAN, 1b relative to treatment with DMSO
  Log2(fold enrichment): 0.2312
S10A9_HUMAN, 1b relative to pretreatment by ibrutinib
  Log2(fold enrichment): 0.07875
S10A9_HUMAN, 1b relative to treatment with DMSO
  Log2(fold enrichment): 2.006
SYFM_HUMAN, 1b relative to pretreatment by ibrutinib
  Log2(fold enrichment): 0.9276
SYFM_HUMAN, 1b relative to treatment with DMSO
  Log2(fold enrichment): -1.069
TBA1B_HUMAN group, 1b relative to pretreatment by ibrutinib
  Log2(fold enrichment): 0.8267
TBA1B_HUMAN group, 1b relative to treatment with DMSO
  Log2(fold enrichment): 1.164
TBB5_HUMAN group, 1b relative to pretreatment by ibrutinib
  Log2(fold enrichment): 1.023
TBB5_HUMAN group, 1b relative to treatment with DMSO
  Log2(fold enrichment): 0.6602
TGM3_HUMAN, 1b relative to pretreatment by ibrutinib
  Log2(fold enrichment): -0.2702
TGM3_HUMAN, 1b relative to treatment with DMSO
  Log2(fold enrichment): 0.4648
THIO_HUMAN, 1b relative to pretreatment by ibrutinib
  Log2(fold enrichment): 0.6478
THIO_HUMAN, 1b relative to treatment with DMSO
  Log2(fold enrichment): 0.5583
TPIS_HUMAN, 1b relative to pretreatment by ibrutinib
  Log2(fold enrichment): 1.866
TPIS_HUMAN, 1b relative to treatment with DMSO
  Log2(fold enrichment): 2.762
VDAC2_HUMAN, 1b relative to pretreatment by ibrutinib
  Log2(fold enrichment): 0.298
VDAC2_HUMAN, 1b relative to treatment with DMSO
  Log2(fold enrichment): 2.794
ZNT4_HUMAN, 1b relative to pretreatment by ibrutinib
  Log2(fold enrichment): 0.6391
ZNT4_HUMAN, 1b relative to treatment with DMSO
  Log2(fold enrichment): 0.7876
